The text below walks through data of ChEMBL document CHEMBL5726965, “Heterocyclic compounds as LSD1 inhibitors” (2018).

This assay addresses Lysine-specific histone demethylase 1A (Homo sapiens, UniProt O60341). The assay can be described thus: Biochemical Assay: LANCE LSD1/KDM1A demethylase assay-10 μL of 1 nM LSD-1 enzyme (ENZO BML-SE544-0050) in the assay buffer (50 mM Tris, pH 7.5, 0.01% Tween-20, 25 mM NaCl, 5 mM DTT) were preincubated for 1 hour at 25° C. with 0.8 μL compound/DMSO dotted in black 384 well polystyrene plates. Reactions were started by addition of 10 μL of assay buffer containing 0.4 μM Biotin-labeled Histone H3 peptide substrate: ART-K(Mel)-QTARKSTGGKAPRKQLA-GGK(Biotin) SEQ ID NO: 1 (AnaSpec 64355) and incubated for 1 hour at 25° C. Reactions were stopped by addition of 10 μL 1×LANCE Detection Buffer (PerkinElmer CR97-100) supplemented with 1.5 nM Eu-anti-unmodified H3K4 Antibody (PerkinElmer TRF0404), and 225 nM LANCE Ultra Streptavidin (PerkinElmer TRF102) along with 0.9 mM Tranylcypromine-HCl (Millipore 616431). After stopping the reactions plates were incubated for 30 minutes and read on a PHERAstar FS plate reader (BMG Labtech). On the technique in general: Time-resolved FRET reads energy transfer from a long-lived donor to a nearby acceptor.
By IC50 is commonly meant the point on the concentration scale where inhibition reaches its midpoint. A low value points to inhibition by little substance. The compound `COC(=O)N(C)c1ccc(-c2c(-c3ccc(C#N)cc3)nc(N3CCC(N(C)C)CC3)n3ccnc23)cc1F` came in with an IC50 of less than 50 nM.
For the compound `COC(=O)N(C)c1cc(-c2c(-c3ccc(C#N)cc3)nc(OC[C@@H]3CCCN(C)C3)n3ccnc23)ccc1C`, the IC50 is less than 50 nM.
The value for `COC(=O)N(C)c1ccc(-c2c(-c3ccc(C#N)cc3)nc(N3CCC(N(C)C)CC3)n3ccnc23)cc1` was less than 50 nM.
